Read-outs that look alike come from different tables or passages of the source.
Tests used:
HSV1 clinical isolates = assay: HSV1 plaque assay in Vero cells; type: cell-based; details: read-out: HSV1 EC50 (μM) Plaque Number (Vero)
[1] = test system: Wnt/β-catenin signaling proteins; assay: Western blot of Wnt/β-catenin signaling proteins in HSV1-infected HFFs; type: cell-based, Human; details: 48 hpi with HSV1-KOS (Dlux/OriS), concentrations resulting in full HCMV inhibition
Experimental: FIG. 7: Effect of monensin, nigericin and salinomycin on expression of Wnt/β-catenin signaling proteins in non-infected and HSV1-infected HFFs. FIG. 7A: Expression of Wnt5a/b, Axin1, β-catenin, and actin (control) in non-infected (Mock), and HSV1-infected HFFs (MOI=0.1) treated with monensin (0.1 μM), nigericin (0.1 μM), salinomycin (1 μM) and GCV (10 μM) was determined after 48 h. Representative data from three independent experiments is shown. FIG. 7B: Expression of Wnt5a/b, Axin1, β-catenin, and actin (control) in non-infected (Mock), and HSV1-infected HFFs (MOI=0.1) treated with monensin (0.2 μM), nigericin (0.2 μM) and salinomycin (2 μM) and GCV (10 μM) was determined after 48 h. Representative data from three independent experiments is shown.
(§1) Cell lysates were quantified for protein content using bicinchoninic acid (BCA) protein assay kit (Pierce Chemical, Rockford, Ill.). Equivalent amount of proteins were mixed with an equal volume of 2× sample buffer (125 mM Tris-HCL, pH 6.8, 4% SDS, 20% glycerol and 5% β-mercaptoethanol) and boiled at 100° C. for 10 min (except for Wnt and pWnt detection for which samples were not boiled). Denatured proteins were resolved in Tris-glycine polyacrylamide gels (10-12%) and transferred to polyvinylidine difluoride (PVDF) membranes (Bio-Rad Laboratories, Hercules, Calif.) by electroblotting. Membranes were incubated in blocking solution [5% non-fat dry milk and 0.1% Tween-20 in PBS (PBST)] for 1 hr, washed three times with PBST, and incubated with appropriately diluted primary antibodies at 4° C. overnight. Membranes were washed with PBST and incubated with horseradish peroxidase-conjugated secondary antibodies in PBST for 1 hr at room temperature. Following washing with PBST, protein bands were visualized by chemiluminescence using SuperSignal West Dura and Pico reagents (Pierce Chemical, Rockford, Ill.). The following antibodies were used for detection of CMV proteins: mouse anti-IE1 and IE2, (MAb810); mouse anti-beta-actin antibody (Millipore, Billerica, Mass.); mouse anti-UL44 (Santa Cruz biotechnology Santa Cruz, Calif.); mouse anti-pp65 (Vector laboratories, Burlingame, Calif.); horseradish peroxidase (HRP)-conjugated anti-rabbit IgG (Cell Signaling Technology, Beverly, Mass.); and HRP-conjugated anti-mouse IgG, (GE Healthcare, Waukesha, Wis.). The following antibodies were used for detection of proteins in the Wnt pathway: anti-Wnt5a/b, Wnt, phospho-Wnt, Dvl2, Dvl3 and axin1 (Cell Signaling), β-catenin (E-5) (Santa Cruz biotechnology).

in vitro [2] = details: human
Experimental: (§3) Cell viability was determined using a colorimetric MTT cell proliferation assay following manufacturer's instructions (Sigma-Aldrich, St. Louis, Mo.). HFFs were treated with varying concentrations of monensin, nigericin, and salinomycin and incubated at 37° C. for 3 days. After the addition of 20 μl/well of MTT (3-(4,5-Dimethyl-2-thiazolyl)-2,5-diphenyl-2H-tetrazolim bromide) (5 mg/ml in PBS), and shaking at 150 rpm for 5 minutes the plates were incubated at 37° C. for 3 hours. Conversion of yellow solution into dark blue formazan by mitochondrial dehydrogenases of living cells was quantified by measuring absorbance at 570 nm. Viable cells in culture medium containing vehicle alone (0.1% DMSO) were referred to as 100% cell viability. For each cell type used for virus infection and drug treatment, the MTT assay was performed at the same time points as the antiviral assay.

HCMV [3] = assay: HCMV yield reduction (infectious virus released into medium, plaques); type: cell-based, Human Cytomegalovirus (HCMV)
HCMV [4] = assay: Reversibility of HCMV inhibition, real-time PCR in supernatants; type: cell-based, Human Cytomegalovirus (HCMV); details: treated 1, 2 or 3 days, then fresh media; HCMV DNA in supernatants at day 6 post infection
Description: FIG. 4: Effects of monensin, nigericin, salinomycin and GCV on replication characteristics. A. Reversibility of HCMV replication: Compounds were present in HCMV-infected HFFs at the indicated intervals in days. Virus DNA was quantified by real-time PCR in supernatants at 6 days post infection. Data represent mean values (±SD) of triplicate determinations from two independent experiments. B. Inhibition of DNA replication, pp28 expression and virus DNA yield: DNA replication was quantified by real-time PCR in cells collected 48 hpi. Pp28-luciferase activity was measured in cell lysates collected at 72 hpi. Virus DNA yield was measured by real-time PCR in supernatants of infected cells collected at 96 hpi. The concentration of compounds was: 0.1 μM for monensin and nigericin, 1 μM for salinomycin and 10 μM for GCV. Data represent mean values (±SD) of triplicate determinations from two independent experiments.
The quantitative CMV real-time PCR assay is based on detection of a 151 bp region from the highly conserved US17 gene (16). The limit of detection of the assay is 100 copies/mL (3.0 copies/reaction), and the measurable range is 2.4-8.0 log10 copies/mL. The PCR was performed using a total reaction volume of 50 μL, including TaqMan 2× Universal PCR Master Mix (Applied Biosystems, Foster City, Calif.), primers (300 nM final concentration), FAM-labeled probe (200 nM final concentration), dH2O, and template (10 μl). Amplification was performed on a 7500 Real-Time PCR System (Applied Biosystems, Foster City, Calif.). PCR conditions were: 50° C. for 2 min, 95° C. for 10 min, 40 cycles of 95° C. for 15 s and 60° C. for 60 s. Quantification standards were prepared by cloning the US17 amplicon in the pCR®2.1-TOPO® plasmid vector (Invitrogen, Carlsbad, Calif.). Serial 10-fold dilutions of plasmid from 7.0 to 1.0 log10 copies/reaction were included with each assay and used to establish a standard curve. The slope and R^2 of the standard curve were −3.3±0.1 and >0.990, respectively. Assay controls included quantified CMV AD 169 DNA (Advanced Biotechnologies Inc.) and quantified Towne CMV at 3.0 and 5.0 log10 copies/mL. Quantitative CMV data were expressed as viral DNA copies per milliliter. The real-time PCR was used for quantification of HCMV replication in cell lysates at 48 hpi, virus DNA yield in supernatants at 96 hpi and for a reversibility assay (14, 16).
To test whether HCMV inhibition by monensin, nigericin and salinomycin was reversible, infected HFFs were treated for 1, 2, or 3 days followed by removal of the media containing the compounds, and adding fresh media until 6 days post infection. HCMV DNA was quantified in supernatants of infected cells at day 6 post infection by real-time PCR.

[5] = test system: pp28-luciferase HCMV Towne strain; assay: microbe, parasite or virus in culture; type: cell-based, Human Cytomegalovirus (HCMV); details: for SI (selectivity index): HCMV in HFFs, mean ± SD; for EC50: Human betaherpesvirus 5, read-out: EC50 (μM), anti-HCMV activity
Experimental: The pp28-luciferase HCMV Towne strain was constructed as previously described (14). This virus expresses luciferase under the control of the late CMV gene promoter, pp28. Luciferase expression is strongly activated 48-72 hours post infection (hpi). […] A GCV-resistant HCMV strain was obtained from a patient with CMV disease. […] Human herpes virus strains were: luciferase HSV1-KOS/Dlux/oriS (15) and clinical isolates of HSV1 and HSV2. All clinical isolates were provided by the clinical virology laboratory with no identifiers that can link to a specific subject. The Johns Hopkins Office of Human Subject Research Institutional Review Board determined that this research qualified for an exemption.
Human Foreskin Fibroblasts (HFFs) passage 12-16 (ATCC, CRL-2088™) were grown in Dulbecco's Modified Eagle Medium (DMEM) containing 10% fetal bovine serum (FBS) (Gibco, Carlsbad, Calif.) in a 5% CO2 incubator at 37° C. and used for infection with HCMV or HSV at multiplicity of infection of 1 PFU/cell (MOI=1) unless otherwise specified. Following 90 minute adsorption (60 min for HSV), media was removed and cells were washed with PBS. DMEM with 4% FBS containing compounds was added to each well. For HCMV, infected, treated HFFs were collected at 72 hpi and lysates were assayed for luciferase activity using a luciferase assay kit (Promega, Madison, Wis.) on GloMax®-Multi+ Detection System (Promega) according to manufacturer's instructions.

[6] = test system: HCMV proteins (IE1, IE2, UL44, pp65); assay: Western blot of HCMV proteins in infected HFFs; type: cell-based, Human Cytomegalovirus (HCMV)
Experimental: (§2) FIG. 5: Effect of Nigericin and GCV on expression of HCMV and Wnt/β-catenin signaling proteins. A. Expression of HCMV proteins in infected HFFs treated with nigericin (100 nM) and GCV (10 μM). Compounds were added after virus adsorption and cell lysates were collected for western blot at 24, 48 and 72 hpi. Control-no treatment. B. Expression of Wnt-signaling proteins was determined in non-infected (Mock), and HCMV-infected HFFs treated with nigericin (100 nM) and GCV (10 μM) at indicated time points. Representative data from three independent experiments are shown.
as §1

[7] = test system: Wnt/β-catenin signaling proteins; assay: Western blot of Wnt-signaling proteins in non-infected and HCMV-infected HFFs; type: cell-based, Human; details: 100 nM
Experimental: as §2, §1

HSV2 clinical isolates = assay: HSV2 plaque assay in Vero cells; type: cell-based; details: read-out: HSV2 EC50 (μM) Plaque Number (Vero)
[8] = test system: luciferase HSV1-KOS/Dlux/oriS; assay: HSV1-KOS/Dlux/oriS yield reduction assay in HFFs; type: cell-based; details: Human alphaherpesvirus 1, 16 h, read-out: HSV1 EC50 (μM) Yield Reduction (HFFs)
in vitro [9] = details: human; remark: listed apart in the source
Experimental: as §3

[10] = test system: GCV-resistant HCMV strain (UL97 mutation H520Q); assay: GCV-resistant HCMV strain, virus DNA yield by real-time PCR; type: cell-based, Human Cytomegalovirus (HCMV); details: Human betaherpesvirus 5, read-out: EC50 against GCV-resistant HCMV strain
Experimental: HFFs cells were infected with a GCV-resistant HCMV and treated with monensin (0.01 μM-1 μM), nigericin (0.005 μM-0.5 μM), salinomycin (0.03 μM-10 μM) or GCV (1 μM-30 μM). Virus DNA yield was quantified by real-time PCR in supernatants of infected cells 96 hpi. Data represent mean values (±SD) of triplicate determinations from two independent experiments.
The quantitative CMV real-time PCR assay is based on detection of a 151 bp region from the highly conserved US17 gene (16). The limit of detection of the assay is 100 copies/mL (3.0 copies/reaction), and the measurable range is 2.4-8.0 log10 copies/mL. […] Quantification standards were prepared by cloning the US17 amplicon in the pCR®2.1-TOPO® plasmid vector (Invitrogen, Carlsbad, Calif.). […] Assay controls included quantified CMV AD 169 DNA (Advanced Biotechnologies Inc.) and quantified Towne CMV at 3.0 and 5.0 log10 copies/mL. Quantitative CMV data were expressed as viral DNA copies per milliliter. The real-time PCR was used for quantification of HCMV replication in cell lysates at 48 hpi, virus DNA yield in supernatants at 96 hpi and for a reversibility assay (14, 16).

in vitro [11] = details: human; remark: listed apart in the source
Experimental: as §3

[12] = Human alphaherpesvirus 1, 48 h, Vero cells, 200 PFU/well, plaques counted after 2 days
[13] = infected HFFs treated at 0.1 μM
[14] = non-infected and HCMV-infected HFFs, all time points (24, 48, 72 hpi)
[15] = Human alphaherpesvirus 2, 48 h, Vero cells, 200 PFU/well, plaques counted after 2 days

Row | SMILES | EC50 (HSV1 clinical isolates; [12]) | expression of Wnt 5a/b in HSV1-infected HFFs [1] | expression of axin 1 in HSV1-infected HFFs [1] | expression of β-catenin in HSV1-infected HFFs [1] | CC50 at 3 days (in vitro [2]) | infectious virus released into the medium (yield reduction), plaques (HCMV [3]; [13]) | reversibility of HCMV inhibition (HCMV [4]) | SI (selectivity index) [5] | EC50 [5] | EC50 (HSV2 clinical isolates; [15]) | EC50 [8] | other results
1 | CO[C@@H]1C[C@@H](C[C@H]2CC[C@H](C)[C@H]([C@@H](C)C(=O)O)O2)O[C@]2(O[C@](C)([C@H]3CC[C@@](C)([C@@H]4O[C@@H]([C@H]5O[C@@](O)(CO)[C@H](C)C[C@@H]5C)C[C@@H]4C)O3)C[C@H]2C)[C@@H]1C [Nigericin, nigericin] | 0.63 µM | inhibition | did not reduce | did not reduce | 3350 ± 770 nM | complete absence of plaques | weak irreversible inhibition | 139 ± 23 | 0.02 µM | 0.16 ± 0.05 µM | 0.08 µM | expression of the late HCMV gene pp65 ([6]; 100 nM): significant inhibition; IE1 expression ([6]; 100 nM, 24, 48 and 72 hpi): no obvious inhibition; IE2 expression ([6]; 100 nM, 24, 48 and 72 hpi): major inhibition; UL44 expression ([6]; 100 nM, 24, 48 and 72 hpi): major inhibition; β-catenin levels ([7]; effect increased from 24 to 48 and 72 hpi): significant decrease; expression of Wnt [7, 14]: decreased expression; expression of Wnt 5a/b [7, 14]: decreased expression; expression of axin 1 [7, 14]: decreased expression; expression of pWnt [7, 14]: decreased expression
2 | Nc1nc(O)c2ncn(COC(CO)CO)c2n1 [GCV, ganciclovir] |  |  |  |  | 247000 ± 33400 nM |  | fully reversible | 96 ± 14 | 2.7 ± 0.1 µM |  |  | CC50 (in vitro [9]): > 100000 nM; EC50 [10]: 7600 nM; CC50 (in vitro [11]): > 100000 nM
3 | CC[C@@H](C(=O)[C@@H](C)[C@@H](O)[C@H](C)[C@@H]1O[C@@H]([C@@H](CC)C(=O)O)CC[C@@H]1C)[C@H]1O[C@]2(C=C[C@@H](O)[C@]3(CC[C@@](C)([C@H]4CC[C@](O)(CC)[C@H](C)O4)O3)O2)[C@H](C)C[C@@H]1C [Salinomycin, salinomycin] |  | inhibition | did not reduce | did not reduce | 28400 ± 5900 nM |  | fully reversible | 143 ± 18 | 0.2 ± 0.01 µM |  | 0.6 ± 0.1 µM | EC50 (HSV1 clinical isolates; Human alphaherpesvirus 1, Vero, 48 h): 0.58 ± 0.07 µM; infectious virus released into the medium (yield reduction), plaques (HCMV [3]; infected HFFs treated at 1 μM): complete absence of plaques; EC50 (HSV2 clinical isolates; Human alphaherpesvirus 2, Vero, 48 h): 0.07 ± 0.03 µM
4 | CC[C@@]1([C@@H]2O[C@@H]([C@H]3O[C@@](O)(CO)[C@H](C)C[C@@H]3C)C[C@@H]2C)CC[C@H]([C@]2(C)CC[C@]3(C[C@H](O)[C@@H](C)[C@@H]([C@@H](C)[C@@H](OC)[C@H](C)C(=O)O)O3)O2)O1 [Monensin] | 1.6 ± 0.14 µM | inhibition | did not reduce | did not reduce | 3370 ± 520 nM | complete absence of plaques | weak irreversible inhibition | 138 ± 14 | 0.02 µM | 0.34 ± 0.04 µM | 0.08 µM | 

— patent publication US9549914B2, “Treatment of human cytomegalovirus by modulating Wnt” (priority 2014, dated 2017)
